What was measured:
BACE1 [1] = molecular target: T1, BACE1 (Homo sapiens (Human), UniProt P56817); experiment: BACE1 binding assay (SPA-based radioligand binding); settings: pH 4.5, 10 nM radioligand, Ki calculated from IC50
Description: The binding assay was performed as SPA-based assay using a biotinylated form of human BACE1 recombinantly expressed and subsequently purified from Freestyle HEK293 cells. The binding assay was run in a 50 mM sodium acetate buffer, pH 4.5 containing 50 mM NaCl and 0.03% Tween-20 in white clear bottom 384 plates (Corning #3653). 10 nM (final concentration) radioligand ([^3H]—N-((1S,2R)-1-benzyl-3-cyclopropylamino-2-hydroxy-propyl)-5-(methanesulfonyl-methyl-amino)-N—((R)-1-phenyl-ethyl)-isophthalamide) (TRQ11569 purchased from GE Healthcare) was mixed with test compound at a given concentration, 6 nM (final concentration) human BACE1 and 25 μg Streptavidin coated PVT core SPA beads (RPNQ0007, GE Healthcare Life Sciences) in a total volume of 40 μl. Several concentrations of each test compound were tested in the assay for IC50 determination. The plates were incubated for one hour at room temperature and counted in a Wallac Trilux counter. Total and non-specific binding were determined using buffer and 1 μM (final concentration) of the high affinity BACE1 reference inhibitor (S)-6-[3-chloro-5-(5-prop-1-ynyl-pyridin-3-yl)-thiophen-2-yl]-2-imino-3,6-dimethyl-tetrahydro-pyrimidin-4-one, respectively. For each test compound, a IC50 value (the concentration mediating 50% inhibition of the specific binding of the radioligand) was determined from concentration-response curve and used to calculate the Ki from the equation Ki=IC50/(1+L/Kd), where L and Kd are the final concentration of the radioligand used in the assay and the dissociation constant of the radioligand, respectively. The Kd of the radioligand was determined from saturation binding experiments.

BACE1 [2] = molecular target: T1, BACE1; experiment: BACE1 efficacy assay (FRET-based, commercial BACE1 kit); assay type: biochemical; settings: 10 μM test compound
Description: The efficacy assay was performed as a FRET-based assay using a commercially available BACE1 kit (Life Technologies, P2985). 2 μl test compound at 10 μM (final concentration) and 15 μl BACE1 enzyme from the kit (final concentration 3 nM) were preincubated for 15 minutes at room temperature before addition of 15 μl of substrate from the kit (250 nM final concentration) and incubated for additional 90 minutes at room temperature. The assay plate was subsequently read in a Pherastar (Ex540/Em590). The enzyme activity observed in presence of test compound were normalized to the enzyme activity observed in presence of buffer and 10 μM (final concentration) of the high affinity BACE1 reference inhibitor (S)-6-[3-Chloro-5-(5-prop-1-ynyl-pyridin-3-yl)-thiophen-2-yl]-2-imino-3,6-dimethyl-tetra-hydropyrimidin-4-one, respectively. The efficacy of the test compounds was evaluated at 10 μM (final concentration) and defined as the percent inhibition of the enzyme activity using the equation % inhibition=100%−normalized enzyme activity in percent.

Aβ40 = experiment: Assessment of Aβ levels in rat brain and plasma following BACE1 inhibition (Aβ40 ELISA); assay type: in vivo; settings: 180 minutes, vs vehicle
Description: Assessment of Aβ Levels in Rat Brain and Plasma Following BACE1 Inhibition. Animals.
All rat care and experimental procedures were approved by Lundbeck Veterinary Staff, according to Danish legislature. The rats were maintained in a barrier facility with a 12/12-h light/dark cycle and ad libitum food and water access.
Young adult Male Sprague Dawley rats of approximately 250 g weight were purchased from Charles River and received 0-30 mg/kg of vehicle (10% HP betaCD+1M MeSO4, pH 2.5) or test compounds (dissolved in vehicle) only by oral gavage (p.o). The compounds are dosed at a volume of 5 ml/kg. Cohorts of 5-10 animals were established for each treatment condition.
At T=180 minutes after initial dosing the animals were stunned and decapitated with a guillotine. Trunk-blood was sampled in EDTA coated tubes after decapitation of the animal. The blood was centrifuged at 2200G at 4° C. for 15 minutes and the plasma was collected and frozen at −80° C. The blood was aliquoted for Aβ ELISA and DMPK analysis. Immediately following sacrifice, the brain was extracted and split into 2 halves. The right hemibrains were snap frozen on dry ice and stored at −80° C. The left half was dissected; with the front forebrain taken for Aβ ELISA and the remainder used for DMPK analysis. These samples were also snap frozen on dry ice and stored at −80° C. until use for analysis.
The cortex samples were thawed slightly on wet ice before they were homogenized with a small volume dispersing instrument (T10 basic ULTRA-TURRAX®) which was set at speed 5 for approximately 5-7 sec. The tissue was processed in a 10 times volume of the weight, for example 100 mg of tissue was homogenized in 1000 μL of Homogenization buffer. Homogenization buffer: 50 ml Milli Q water+50 nM NaCl+0.2% Diethylamin (DEA)+1 tablet of Complete Protease inhibitor cocktail+1 nM 4-(2-aminoethyl) benzenesulfonyl fluoride hydrochloride irreversible serine protease inhibitor (AEBSF).
After homogenization 450 μL aliquots of the samples are collected into a 1.5 ml Eppendorf tube and placed on wet ice, 0.5% NP-40 (50 ul) was added to all samples and then they were incubated on ice for 30 min. After which all samples were sonicated using an Ultrasonic homogenizer with 20 kHz homogeneous sound (SONOPLUS HD2070, Bandelin Electronic) 10 pulse set at 12-13% power to extract all the Aβ species. The samples were then centrifuged (Ole Dich 157 MPRF Micro centrifuge) at 20000G for 20 minutes at 4° C. After centrifugation 285 μL of the supernatant was pipetted into 600 μL microtubes tubes and neutralized with 15 μL of 1M Tris-HCL buffer.
WAKO 294-62501 Human/Rat Abeta amyloid (40) kit was used for all ELISA analyses. 30 μL plasma samples or 30 μL of the cortex supernatants generated as described above were placed in 600 μL microtubes tubes on wet ice. To this 30 μL of 8M Urea (AppliChem A1049, 9025) are added to generate a 2-fold dilution. Both plasma and cortex supernatants are incubated on ice for 30 min. Standard rows were prepared from the standard peptide stock provided in the kit and standard diluent containing 1.6M Urea (200 μL 8M Urea+800 μL of standard diluent) and 0.8M Urea (400 μL 8M Urea+3600 μL Standard diluent). A serial 2-fold dilution of A340 from […] to 0 μmol/L was prepared for the assay.
After incubation with urea, all samples were further diluted by addition of 5 times standard diluent from the Kit. This was done by adding 240 μL Standard Diluent to 60 μL sample/urea mixture, which was then mixed well. 100 μL of each diluted sample was pipetted into designated wells of the ELISA plate in duplicates. The plate was then covered and incubated overnight at 4° C. The following day, the ELISA kit was brought to room temperature before use. The incubated plate was washed 5 times with the 20× washing solution diluted in Milli Q water. 100 μL HRP-conjugate was applied to each well, and the plate was covered and incubates at 4° C. for 1 hr. The wash was repeated again for 5 times. […]

T1 sequence (P56817 46-501): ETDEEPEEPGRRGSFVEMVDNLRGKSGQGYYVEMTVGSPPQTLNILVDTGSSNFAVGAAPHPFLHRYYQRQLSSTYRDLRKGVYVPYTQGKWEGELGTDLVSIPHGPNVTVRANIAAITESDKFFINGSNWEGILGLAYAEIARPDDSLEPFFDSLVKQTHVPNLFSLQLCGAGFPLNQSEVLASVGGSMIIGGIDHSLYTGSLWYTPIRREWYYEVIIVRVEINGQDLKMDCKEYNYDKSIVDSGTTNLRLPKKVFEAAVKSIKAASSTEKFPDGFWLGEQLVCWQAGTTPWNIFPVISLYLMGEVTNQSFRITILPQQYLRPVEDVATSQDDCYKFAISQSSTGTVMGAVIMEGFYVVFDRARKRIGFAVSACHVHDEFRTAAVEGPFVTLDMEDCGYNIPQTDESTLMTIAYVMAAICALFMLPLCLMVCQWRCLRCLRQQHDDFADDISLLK

Ki (BACE1 [1]) [nM] | inhibition at 10 µM (BACE1 [2]) [%] | Compound | Aβ40 reduction (Aβ40; Brain Rat, 10 mg/kg p.o.) [%] | Aβ40 reduction (Aβ40; Brain Rat, 30 mg/kg p.o.) [%] | Aβ40 reduction (Aβ40; Plasma Rat, 10 mg/kg p.o.) [%] | Aβ40 reduction (Aβ40; Plasma Rat, 30 mg/kg p.o.) [%] | Aβ40 reduction (Aβ40; Brain Rat, 3 mg/kg p.o.) [%] | Aβ40 reduction (Aβ40; Plasma Rat, 3 mg/kg p.o.) [%]
20 | 106 | [2H]C([2H])([2H])Oc1ccc(C(=O)Nc2ccc(F)c([C@@]3(C)N=C(N)[C@@](C)(F)C[C@@H]3F)c2)nc1 [Compound 19, N-(3-((2R,3S,5S)-6-amino-3,5-difluoro-2,5-dimethyl-2,3,4,5-tetrahydropyridin-2-yl)-4-fluorophenyl)-5-(methoxy-d3)picolinamide] | 56 | 66 | 49 | 53 | – | –
23 | 102 | COc1ccc(C(=O)Nc2ccc(F)c([C@@]3(C)N=C(N)[C@@](C)(F)C[C@@H]3F)c2)nc1 [Compound 3, N-(3-((2R,3S,5S)-6-amino-3,5-difluoro-2,5-dimethyl-2,3,4,5-tetrahydropyridin-2-yl)-4-fluorophenyl)-5-methoxypicolinamide] | 35 | 61 | 24 | 53 | – | –
21 | 106 | [2H]C([2H])([2H])Oc1cnc(C(=O)Nc2ccc(F)c([C@@]3(C)N=C(N)[C@@](C)(F)C[C@@H]3F)c2)cn1 [Compound 20, N-(3-((2R,3S,5S)-6-amino-3,5-difluoro-2,5-dimethyl-2,3,4,5-tetrahydropyridin-2-yl)-4-fluorophenyl)-5-(methoxy-d3)pyrazine-2-carboxamide] | – | – | – | – | 52 | 64

Source: patent publication US10059669B2, “2-amino-3,5-difluoro-3,6-dimethyl-6-phenyl-3,4,5,6-tetrahydropyridines as BACE1 inhibitors for treating alzheimer's disease” (H. Lundbeck A/S, priority 2014, dated 2018)
